Measurements published in patent publication US20130123107A1, “Use of Adjuvants to Improve Abscisic Acid Performance” (Valent BioSciences Corporation, priority 2007, published 2013).

Assays:
[1] = system: tomato leaf transpiration; assay: tomato leaf transpiration inhibition bioassay; type: in vivo, Tomato (variety: Rutgers)
Text: The compositions of the present invention improve ABA effectiveness by incorporating a surfactant, and optionally a nitrogen-containing fertilizer together with an effective amount of the plant growth regulator abscisic acid (S-ABA; ABA; S-(+)-abscisic acid; +-ABA, (+)-(S)-cis, trans-abscisic acid, (+)-(S)-cis,trans-ABA; S-ABA; (S)-5-(1-hydroxy-2,6,6,-trimethyl-4-oxo-2-cyclohexen-1-yl)-3-methyl-(2Z,4E)-pentadienoic acid; CAS registry no, [21293-29-8]). ABA effectiveness may be measured experimentally by quantifying the inhibition of transpiration in tomato leaves. This is a reliable laboratory bioassay of the level of ABA activity.
Preparation of plant specimens for use in the treatment studies of the examples described was carried out as follows. Tomato (variety: Rutgers) seeds were sown in an 18-cell flat filled with Promix PGX (available from Premier Horticulture Inc. Quakertown, Pa.) and grown for 3 weeks to allow for germination and initial growth. Plants were then transplanted into pots (18 cm in diameter and 18 cm in height), filled with Promix BX (available from Premier Horticulture Inc. Quakertown, Pa.), and grown for one or two more weeks before treatment, depending on temperature and available light. Plants received daily irrigation and weekly fertilizer (1 g/L all purpose fertilizer 20-20-20, available from The Scotts Company, Marysville, Ohio).
All treatment solutions were prepared with distilled water, ABA (95% active ingredient) is available from Lomon BioTechnology Co., Ltd. (Shichuan, China). […]
Unless otherwise specified, when a surfactant was employed, it was incorporated into the 250-ppm ABA treatment solution at a concentration of 0.05% to 0.5% (v/v).
ABA solutions and blank treatments were applied to the aerial parts of tomato plant leaves at the rate of 20 mL per 6 plants. Plants were then placed in a transparent chamber with humidity controlled within the range of 40 to 60% relative humidity. Leaf transpiration rates were measured at 1, 2 and 3 days; at 1, 2, 3 and 4 days; or at 1, 2, 3, 4 and 7 days after treatment. Measurements were conducted using a LI-1600 Steady State Porameter (LI-Cor, Lincoln, Nebr.). Each day the transpiration rate of the plants of each treatment group was normalized to the percentage of the transpiration rate of untreated plants (plants sprayed with water only) in order to control for day-to-day variability caused by changes of environmental conditions such as light intensity and temperature. In some cases, data of each plant was averaged over a 3-day period to balance the short term and long-term effect of ABA on tomato leaf transpiration as well as to control for experimental variability.
(§1) All experiments were conducted using a randomized complete block experimental design. Data were analyzed by analysis of variance. Duncan's new multiple range tests at α-005 were used for mean separations.

Crimson seedless grapes = assay: grape coloring field study, ABA with or without Latron B-1956; type: in vivo; conditions: for Harvest yield (%): harvest at 64 days after treatment, yield percent with sufficient color
Experimental: A grape coloring field study was conducted at Caruthers, Calif., ABA alone at 100 or 200 ppm or its combination with 0.05% Latron B-1956 was foliar applied to Crimson seedless grapes. Number of clusters, with color was counted on a weekly basis, beginning at 21 days after treatment. Percentage of clusters with color was calculated. Grape yield was harvested at 64 days after treatment.
as §1
The effect of 0.05% Latron B-1956 on ABA (100 or 200 ppm) performance in grape coloration was examined (Table 15). Addition of Latron B-1956 increased the percent clusters with color for ABA at 100 or 200 ppm after application and increased the harvest yield percent with sufficient color. ABA at 200 ppm with or without Latron 13-1956 had more color and greater yield than at 100 ppm.

## (S)-5-(1-hydroxy-2,6,6,-trimethyl-4-oxo-2-cyclohexen-1-yl)-3-methyl-(2Z,4E)-pentadienoic acid [ABA]
[1]; 125 ppm ABA, average of first 3 days after treatment
  Transpiration rate (% of control): 96 % of control
[1]; 250 ppm ABA or ABA ammonium salt, 1 day after treatment (Table 7)
  Transpiration rate (% of control): 73 % of control
[1]; 250 ppm ABA or ABA ammonium salt, 2 days after treatment (Table 7)
  Transpiration rate (% of control): 76 % of control
[1]; 250 ppm ABA or ABA ammonium salt, 3 days after treatment (Table 7)
  Transpiration rate (% of control): 94 % of control
[1]; 250 ppm ABA or ABA ammonium salt, average of days 1-3 after treatment (Table 7)
  Transpiration rate (% of control), Average: 81 % of control
[1]; 250 ppm ABA or salt at rate equivalent to 250 ppm ABA, 1 day after treatment (Table 8)
  Transpiration rate (% of control): 71 % of control
[1]; 250 ppm ABA or salt at rate equivalent to 250 ppm ABA, 2 days after treatment (Table 8)
  Transpiration rate (% of control): 75 % of control
[1]; 250 ppm ABA or salt at rate equivalent to 250 ppm ABA, 3 days after treatment (Table 8)
  Transpiration rate (% of control): 88 % of control
[1]; 250 ppm ABA or salt at rate equivalent to 250 ppm ABA, average of days 1-3 (Table 8)
  Transpiration rate (% of control), Average: 78 % of control
[1]; 250 ppm ABA or salt at rates equivalent to 250 ppm ABA, 1 day after treatment (Table 10)
  Transpiration rate (% of control): 59 % of control
[1]; 250 ppm ABA or salt at rates equivalent to 250 ppm ABA, 2 days after treatment (Table 10)
  Transpiration rate (% of control): 71 % of control
[1]; 250 ppm ABA or salt at rates equivalent to 250 ppm ABA, 3 days after treatment (Table 10)
  Transpiration rate (% of control): 77 % of control
[1]; 250 ppm ABA or salt at rates equivalent to 250 ppm ABA, average of days 1-3 (Table 10)
  Transpiration rate (% of control), Average: 69 % of control
[1]; 250 ppm ABA, 1 day after treatment (Table 2)
  Transpiration rate (% of control): 76 % of control
[1]; 250 ppm ABA, 1 day after treatment (Table 5)
  Transpiration rate (% of control): 82 % of control
[1]; 250 ppm ABA, 1 day after treatment (Table 6)
  Transpiration rate (% of control): 71 % of control
[1]; 250 ppm ABA, 1 day after treatment (Table 11)
  Transpiration rate (% of control): 83 % of control
[1]; 250 ppm ABA, 1 day after treatment (Table 13)
  Transpiration rate (% of control): 74 % of control
[1]; 250 ppm ABA, 1 day after treatment (Table 14)
  Transpiration rate (% of control): 74 % of control
[1]; 250 ppm ABA, 2 days after treatment (Table 2)
  Transpiration rate (% of control): 99 % of control
[1]; 250 ppm ABA, 2 days after treatment (Table 5)
  Transpiration rate (% of control): 91 % of control
[1]; 250 ppm ABA, 2 days after treatment (Table 6)
  Transpiration rate (% of control): 84 % of control
[1]; 250 ppm ABA, 2 days after treatment (Table 11)
  Transpiration rate (% of control): 85 % of control
[1]; 250 ppm ABA, 2 days after treatment (Table 14)
  Transpiration rate (% of control): 82 % of control
[1]; 250 ppm ABA, 3 days after treatment (Table 2)
  Transpiration rate (% of control): 93 % of control
[1]; 250 ppm ABA, 3 days after treatment (Table 5)
  Transpiration rate (% of control): 90 % of control
[1]; 250 ppm ABA, 3 days after treatment (Table 6)
  Transpiration rate (% of control): 86 % of control
[1]; 250 ppm ABA, 3 days after treatment (Table 11)
  Transpiration rate (% of control): 94 % of control
[1]; 250 ppm ABA, 3 days after treatment (Table 13)
  Transpiration rate (% of control): 95 % of control
[1]; 250 ppm ABA, 3 days after treatment (Table 14)
  Transpiration rate (% of control): 95 % of control
[1]; 250 ppm ABA, 4 days after treatment (Table 5)
  Transpiration rate (% of control): 100 % of control
[1]; 250 ppm ABA, 4 days after treatment (Table 6)
  Transpiration rate (% of control): 90 % of control
[1]; 250 ppm ABA, 4 days after treatment (Table 13)
  Transpiration rate (% of control): 100 % of control
[1]; 250 ppm ABA, 4 days after treatment (Table 14)
  Transpiration rate (% of control): 100 % of control
[1]; 250 ppm ABA, average of days 1-3 (Table 11)
  Transpiration rate (% of control), Average: 87 % of control
[1]; 250 ppm ABA, average of first 3 days after treatment (Table 1)
  Transpiration rate (% of control): 88 % of control
[1]; 250 ppm ABA, average of first 3 days after treatment (Table 3)
  Transpiration rate (% of control): 83 % of control
[1]; 250 ppm ABA, average of first 3 days after treatment (Table 4)
  Transpiration rate (% of control): 96.32 % of control
[1]; 250 ppm ABA, average of first 3 days after treatment (Table 9)
  Transpiration rate (% of control): 73 % of control
[1]; 500 ppm ABA, average of first 3 days after treatment
  Transpiration rate (% of control): 74 % of control
[1]; 1000 ppm ABA, average of first 3 days after treatment
  Transpiration rate (% of control): 68 % of control
[1]; calculated from linear regression of relative transpiration (3-day average) on log10 ABA concentration
  ABA concentrations to achieve 50% inhibition of transpiration: 3328 ppm
Crimson seedless grapes; 100 ppm ABA foliar applied, 21 days after application
  % clusters with color: 1.8%
Crimson seedless grapes; 100 ppm ABA foliar applied, 27 days after application
  % clusters with color: 2.7%
Crimson seedless grapes; 100 ppm ABA foliar applied, 35 days after application
  % clusters with color: 5.7%
Crimson seedless grapes; 100 ppm ABA foliar applied, 43 days after application
  % clusters with color: 7.5%
Crimson seedless grapes; 100 ppm ABA foliar applied, 50 days after application
  % clusters with color: 9.4%
Crimson seedless grapes; 100 ppm ABA foliar applied, 56 days after application
  % clusters with color: 26.1%
Crimson seedless grapes; 100 ppm ABA foliar applied, 62 days after application
  % clusters with color: 26.2%
Crimson seedless grapes; 100 ppm ABA foliar applied, 64 days after application
  % clusters with color: 31.2%
Crimson seedless grapes; 100 ppm ABA foliar applied
  Harvest yield (%): 25.5%
Crimson seedless grapes; 200 ppm ABA foliar applied, 21 days after application
  % clusters with color: 7.0%
Crimson seedless grapes; 200 ppm ABA foliar applied, 27 days after application
  % clusters with color: 10.7%
Crimson seedless grapes; 200 ppm ABA foliar applied, 35 days after application
  % clusters with color: 17.3%
Crimson seedless grapes; 200 ppm ABA foliar applied, 43 days after application
  % clusters with color: 20.5%
Crimson seedless grapes; 200 ppm ABA foliar applied, 50 days after application
  % clusters with color: 22.7%
Crimson seedless grapes; 200 ppm ABA foliar applied, 56 days after application
  % clusters with color: 47.9%
Crimson seedless grapes; 200 ppm ABA foliar applied, 62 days after application
  % clusters with color: 50.3%
Crimson seedless grapes; 200 ppm ABA foliar applied, 64 days after application
  % clusters with color: 56.4%
Crimson seedless grapes; 200 ppm ABA foliar applied
  Harvest yield (%): 49.1%
